Experiment [1] concerns NCI-H2122. Put plainly: combination cScore with adagrasib (Bliss gap around IC50) (%PoC); higher = stronger additive effect. How it is done: (§1)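 Combination screen of 179 inhibitors with the KRAS G12C inhibitor adagrasib (MRTX849) in dose matrices, CellTiter-Glo readout in NCI-H2122 (72 h), SW837 (144 h) and NCI-H358 cells. The cScore is the mean Bliss-independence gap (expected minus observed viability, in %PoC) over a 3x3 field around the IC50s of both drugs. Positive means additive, and >~10 is stated as clear additive.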

The test system of a further experiment is SW837. The experiment is described as above. As to the method: as §1
Experiment [2] deals with NCI-H2122. Put plainly: combination cScore with sotorasib (Bliss gap around IC50) (%PoC); higher = stronger additive effect. How it is done:
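Combination screen of 179 inhibitors with the KRAS G12C inhibitor sotorasib (AMG510) in dose matrices, CellTiter-Glo readout in NCI-H2122 (72 h), SW837 (144 h) and NCI-H358 cells. The cScore is the mean Bliss-independence gap (expected minus observed viability, in %PoC) over a 3x3 field around the IC50s of both drugs. Positive means additive, and >~10 is stated as clear additive.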

As for `CC(C)(C(=O)NCC(F)(F)C(F)(F)F)C(=O)N[C@@H]1C(=O)Nc2ccccc2-c2ccccc21` + C=C(F)C(=O)N1CCN(c2nc(OC[C@@H]3CCCN3C)nc3c2CCN(c2cccc4cccc(Cl)c24)C3)C[C@@H]1CC#N [adagrasib], the “combination cScore with adagrasib” value in the experiment with NCI-H2122 [1] turned out to be 6.57; with SW837 it was 9.86.

Take `CCc1cnn2c(NCc3ccc[n+]([O-])c3)cc(N3CCCC[C@H]3CCO)nc12` + C=C(F)C(=O)N1CCN(c2nc(OC[C@@H]3CCCN3C)nc3c2CCN(c2cccc4cccc(Cl)c24)C3)C[C@@H]1CC#N [adagrasib]: the “combination cScore with adagrasib” value in the experiment on NCI-H2122 [1] is -0.08; with SW837 it was 0.92.

In the case of `CN(C)CCCC(=O)Nc1n[nH]c2nnc(-c3ccccc3)cc12` + C=C(F)C(=O)N1CCN(c2nc(OC[C@@H]3CCCN3C)nc3c2CCN(c2cccc4cccc(Cl)c24)C3)C[C@@H]1CC#N [adagrasib], the “combination cScore with adagrasib” value in the experiment with NCI-H2122 [1] is -12.3; in the experiment on SW837, -2.5.

In the case of `COc1ccc(Cn2ccc3ccc(C(=O)NO)cc32)cc1` + C=C(F)C(=O)N1CCN(c2nc(OC[C@@H]3CCCN3C)nc3c2CCN(c2cccc4cccc(Cl)c24)C3)C[C@@H]1CC#N [adagrasib], the “combination cScore with adagrasib” value worked out at 2.01 in the experiment on NCI-H2122 [1] and 1.45 in the experiment with SW837.

Consider `COc1ccc2nc3ccc(OC)cc3c(SCCCN)c2c1` + C=C(F)C(=O)N1CCN(c2nc(OC[C@@H]3CCCN3C)nc3c2CCN(c2cccc4cccc(Cl)c24)C3)C[C@@H]1CC#N [adagrasib], for which the “combination cScore with adagrasib” value was 7.77 with NCI-H2122 [1] and -2.24 in the experiment on SW837.

Regarding `C[C@@H](Oc1cc(-c2cnn(C3CCNCC3)c2)cnc1N)c1c(Cl)ccc(F)c1Cl` + C=C(F)C(=O)N1CCN(c2nc(OC[C@@H]3CCCN3C)nc3c2CCN(c2cccc4cccc(Cl)c24)C3)C[C@@H]1CC#N [adagrasib], the “combination cScore with adagrasib” value turned out to be 6.58 in the experiment with NCI-H2122 [1] and 12.7 in the experiment on SW837.

`Cc1[nH]c(/C=C2\C(=O)Nc3ccc(S(=O)(=O)Cc4c(Cl)cccc4Cl)cc32)c(C)c1C(=O)N1CCC[C@@H]1CN1CCCC1` + C=C(F)C(=O)N1CCN(c2nc(OC[C@@H]3CCCN3C)nc3c2CCN(c2cccc4cccc(Cl)c24)C3)C[C@@H]1CC#N [adagrasib]: the entries for the “combination cScore with adagrasib” value with NCI-H2122 [1] and in the experiment with SW837 were 6.94 and -0.48, respectively.

As for `NC(=O)c1ccc(-c2nc(-c3ccccn3)c(-c3ccc4c(c3)OCO4)[nH]2)cc1` + C=C(F)C(=O)N1CCN(c2nc(OC[C@@H]3CCCN3C)nc3c2CCN(c2cccc4cccc(Cl)c24)C3)C[C@@H]1CC#N [adagrasib], the “combination cScore with adagrasib” value in the experiment on NCI-H2122 [1] was 0.05; with SW837, -9.94.

Turning to `NC(=O)c1cnc(N[C@@H]2CCCC[C@@H]2N)nc1Nc1cccc(-n2nccn2)c1` + C=C(F)C(=O)N1CCN(c2nc(OC[C@@H]3CCCN3C)nc3c2CCN(c2cccc4cccc(Cl)c24)C3)C[C@@H]1CC#N [adagrasib], the entries for the “combination cScore with adagrasib” value with NCI-H2122 [1] and with SW837 were 11.8 and 3.74, respectively.

Regarding `O=[N+]([O-])c1ccc(NCCNc2ncc(-c3ncc[nH]3)c(-c3ccc(Cl)cc3Cl)n2)nc1` + C=C(F)C(=O)N1CCN(c2nc(OC[C@@H]3CCCN3C)nc3c2CCN(c2cccc4cccc(Cl)c24)C3)C[C@@H]1CC#N [adagrasib], the “combination cScore with adagrasib” value in the experiment on NCI-H2122 [1] is -12.7; in the experiment with SW837 it was 5.65.

Turning to `On1ncc2cc(CCc3nn[nH]n3)ccc21` + C=C(F)C(=O)N1CCN(c2nc(OC[C@@H]3CCCN3C)nc3c2CCN(c2cccc4cccc(Cl)c24)C3)C[C@@H]1CC#N [adagrasib], the “combination cScore with adagrasib” value in the experiment on NCI-H2122 [1] is 7.37; in the experiment on SW837, -2.04.

With `c1ccc(-c2nn3c(c2-c2ccnc4cc(OCCN5CCOCC5)ccc24)CCC3)nc1` + C=C(F)C(=O)N1CCN(c2nc(OC[C@@H]3CCCN3C)nc3c2CCN(c2cccc4cccc(Cl)c24)C3)C[C@@H]1CC#N [adagrasib], the “combination cScore with adagrasib” value in the experiment on NCI-H2122 [1] is -21.2; in the experiment on SW837 it was 0.67.

`CC1(C)CCC(CN2CCN(c3ccc(C(=O)NS(=O)(=O)c4ccc(NCC5CCOCC5)c([N+](=O)[O-])c4)c(Oc4cnc5[nH]ccc5c4)c3)CC2)=C(c2ccc(Cl)cc2)C1` [ABT-199] + C=C(F)C(=O)N1CCN(c2nc(OC[C@@H]3CCCN3C)nc3c2CCN(c2cccc4cccc(Cl)c24)C3)C[C@@H]1CC#N [adagrasib]: the “combination cScore with adagrasib” value in the experiment with NCI-H2122 [1] was 3.14; in the experiment with SW837, -3.71.

In the case of `CO[C@H]1/C=C/C[C@H](C)[C@@H](C)S(=O)(=O)NC(=O)c2ccc3c(c2)N(C[C@@H]2CC[C@H]21)C[C@@]1(CCCc2cc(Cl)ccc21)CO3` [AMG176] + C=C(F)C(=O)N1CCN(c2nc(OC[C@@H]3CCCN3C)nc3c2CCN(c2cccc4cccc(Cl)c24)C3)C[C@@H]1CC#N [adagrasib], the entries for the “combination cScore with adagrasib” value with NCI-H2122 [1] and with SW837 were 5.81 and -0.8, respectively.

As for `COc1cc(OC2CCN(C)CC2)ccc1Nc1ncc2c(n1)n(C1CCCC1)c(=O)n2C` [AZ3146] + C=C(F)C(=O)N1CCN(c2nc(OC[C@@H]3CCCN3C)nc3c2CCN(c2cccc4cccc(Cl)c24)C3)C[C@@H]1CC#N [adagrasib], the “combination cScore with adagrasib” value in the experiment with NCI-H2122 [1] was -1.25; in the experiment with SW837, 9.79.

`Cc1cc(Nc2nc(N[C@@H](C)c3ncc(F)cn3)ncc2Cl)[nH]n1` [AZD-1480] + C=C(F)C(=O)N1CCN(c2nc(OC[C@@H]3CCCN3C)nc3c2CCN(c2cccc4cccc(Cl)c24)C3)C[C@@H]1CC#N [adagrasib]: the “combination cScore with adagrasib” value came to 3.87 in the experiment on NCI-H2122 [1] and 1.14 in the experiment on SW837.

As to `NC(=O)Nc1cc(-c2cccc(F)c2)sc1C(=O)N[C@H]1CCCNC1` [AZD-7762] + C=C(F)C(=O)N1CCN(c2nc(OC[C@@H]3CCCN3C)nc3c2CCN(c2cccc4cccc(Cl)c24)C3)C[C@@H]1CC#N [adagrasib], the “combination cScore with adagrasib” value in the experiment with NCI-H2122 [1] is -0.23; with SW837, -2.72.

As for `COc1cc2cc(c1Cl)N(C)C(=O)C[C@H](OC(=O)C(C)C)[C@]1(C)O[C@@H]1[C@H](C)[C@@H]1C[C@@](O)(NC(=O)O1)[C@H](OC)/C=C/C=C(\C)C2` [Ansamitocin P3] + C=C(F)C(=O)N1CCN(c2nc(OC[C@@H]3CCCN3C)nc3c2CCN(c2cccc4cccc(Cl)c24)C3)C[C@@H]1CC#N [adagrasib], the “combination cScore with adagrasib” value in the experiment on NCI-H2122 [1] is -2.93; in the experiment on SW837 it was 2.67.

On to `Cc1ncc([N+](=O)[O-])n1CCOC(=O)NC(Nc1ncccn1)C(Cl)(Cl)Cl` (stereo unspecified) [Apcin] + C=C(F)C(=O)N1CCN(c2nc(OC[C@@H]3CCCN3C)nc3c2CCN(c2cccc4cccc(Cl)c24)C3)C[C@@H]1CC#N [adagrasib], for which the “combination cScore with adagrasib” value is 2.71 with NCI-H2122 [1] and -0.93 in the experiment with SW837.

In the case of `Nc1ncn([C@@H]2O[C@H](CO)[C@@H](O)[C@H]2O)c(=O)n1` [Azacitidine] + C=C(F)C(=O)N1CCN(c2nc(OC[C@@H]3CCCN3C)nc3c2CCN(c2cccc4cccc(Cl)c24)C3)C[C@@H]1CC#N [adagrasib], the “combination cScore with adagrasib” value in the experiment with NCI-H2122 [1] is -1.39; with SW837, 9.12.

In the case of `CCN1CCN(c2ccc(Nc3cc(N(C)C(=O)Nc4c(Cl)c(OC)cc(OC)c4Cl)ncn3)cc2)CC1` [BGJ398] + C=C(F)C(=O)N1CCN(c2nc(OC[C@@H]3CCCN3C)nc3c2CCN(c2cccc4cccc(Cl)c24)C3)C[C@@H]1CC#N [adagrasib], the “combination cScore with adagrasib” value in the experiment on NCI-H2122 [1] is -3.17; with SW837 it was 3.09.

On to `O=C(Cc1ccccc1)Nc1nnc(CCSCCc2nnc(NC(=O)Cc3ccccc3)s2)s1` [BPTES] + C=C(F)C(=O)N1CCN(c2nc(OC[C@@H]3CCCN3C)nc3c2CCN(c2cccc4cccc(Cl)c24)C3)C[C@@H]1CC#N [adagrasib], for which the “combination cScore with adagrasib” value in the experiment with NCI-H2122 [1] came out at 8.57; in the experiment with SW837, 7.09.

As for `Nc1nc(Nc2ccc3c(c2)CC[C@@H](N2CCCC2)CC3)nn1-c1cc2c(nn1)-c1ccccc1CCC2` [Bemcentinib] + C=C(F)C(=O)N1CCN(c2nc(OC[C@@H]3CCCN3C)nc3c2CCN(c2cccc4cccc(Cl)c24)C3)C[C@@H]1CC#N [adagrasib], the results for the “combination cScore with adagrasib” value in the experiment on NCI-H2122 [1] and in the experiment on SW837 were -0.08 and -0.26, respectively.

In the case of `C=C(c1ccc(C(=O)O)cc1)c1cc2c(cc1C)C(C)(C)CCC2(C)C` [Bexarotene] + C=C(F)C(=O)N1CCN(c2nc(OC[C@@H]3CCCN3C)nc3c2CCN(c2cccc4cccc(Cl)c24)C3)C[C@@H]1CC#N [adagrasib], the “combination cScore with adagrasib” value in the experiment on NCI-H2122 [1] was -4.01; in the experiment on SW837 it was 0.535.

In the case of `N[C@H]1CC[C@H](N[C@@H]2C[C@H]2c2ccccc2)CC1` [ORY-1001] + C=CC(=O)N1CCN(c2nc(=O)n(-c3c(C)ccnc3C(C)C)c3nc(-c4c(O)cccc4F)c(F)cc23)[C@@H](C)C1 [sotorasib], in the experiment on NCI-H2122 [2], the “combination cScore with sotorasib” value came out at 8.65.

`CCCS(=O)(=O)Nc1ccc(F)c(C(=O)c2c[nH]c3ncc(Cl)cc23)c1F` [PLX4720] + C=C(F)C(=O)N1CCN(c2nc(OC[C@@H]3CCCN3C)nc3c2CCN(c2cccc4cccc(Cl)c24)C3)C[C@@H]1CC#N [adagrasib]: the “combination cScore with adagrasib” value with SW837 was -5.68.

For `Cc1[nH]c2ccccc2c1CCNCc1ccc(/C=C/C(=O)NO)cc1` [Panobinostat] + C=CC(=O)N1CCN(c2nc(=O)n(-c3c(C)ccnc3C(C)C)c3nc(-c4c(O)cccc4F)c(F)cc23)[C@@H](C)C1 [sotorasib], the “combination cScore with sotorasib” value in the experiment on NCI-H2122 [2] was 0.52.

(Values after the supplement of paper PMC11424490.)
